The values below come from US7595401B2, “Therapeutic compounds and their use in cancer” (Myriad Pharmaceuticals, Inc., priority 2006, dated 2009).

The subject of the first test is purified human Hsp90. The experiment in a line: Binding Assay: fluorescence polarization with BODIPY-labeled geldanamycin. The settings on record: 5 μM compound, BODIPY-GM 10 nM, Hsp90 30 nM. The procedure, abridged: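 Compounds in 2% DMSO final compete with 10 nM BODIPY-GM for 30 nM purified human Hsp90, incubated overnight at room temperature in pH 7.3 HEPES buffer containing Na2MoO4 and DTT. Polarization (mP, ex/em 485/530) normalized to DMSO gives percent inhibition; autofluorescence-confounded data excluded.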
On the technique in general: Polarisation of emitted light reports the rotation of a fluorescent probe.
As for `COc1ccc(OC)c(Sc2nc3c(N)ncnc3n2CC(c2ccccc2)C2CCCCC2)c1` (stereo not drawn) [Example 179, 9-(2-Cyclohexyl-2-phenyl-ethyl)-8-(2,5-dimethoxy-phenylsulfanyl)-9H-purin-6-ylamine], the “% Inhibition at 5 μM Compound Concentration” value (from here on “% Inhibition”) is recorded as 8%.
Regarding `COc1ccc(OC)c(Sc2nc3c(N)ncn(CC(c4ccccc4)C4CCCCC4)c-3n2)c1` (stereo not drawn) [Example 180, 3-(2-cyclohexyl-2-phenyl-ethyl)-8-(2,5-dimethoxy-phenylsulfanyl)-3H-purin-6-ylamine], the “% Inhibition” value was above 10%.
Regarding `COc1ccc(OC)c(Sc2nc3c(N)ncn(CCc4ccc(-c5ccccc5)cc4)c-3n2)c1` [Example 182, 3-(2-biphenyl-4-yl-ethyl)-8-(2,5-dimethoxy-phenylsulfanyl)-3H-purin-6-ylamine], the “% Inhibition” value is above 10%.
Same read-out and setting: under `COc1ccc(OC)c(Sc2nc3c(N)ncnc3n2CCc2ccccc2C(F)(F)F)c1` [Example 183, 8-(2,5-Dimethoxy-phenylsulfanyl)-9-[2-(2-trifluoromethyl-phenyl)-ethyl]-9H-purin-6-ylamine] stands 100%; under `COc1ccc(OC)c(Sc2nc3c(N)ncn(CCc4ccccc4C(F)(F)F)c-3n2)c1` [Example 184, 8-(2,5-dimethoxy-phenylsulfanyl)-3-[2-(2-trifluoromethyl-phenyl)-ethyl]-3H-purin-6-ylamine], 0%.
Consider `COc1ccc(OC)c(Sc2nc3c(N)ncn(CCc4ccc(N(C)C)cc4)c-3n2)c1` [Example 186, 8-(2,5-dimethoxy-phenylsulfanyl)-3-[2-(4-dimethylamino-phenyl)-ethyl]-3H-purin-6-ylamine], for which the “% Inhibition” value was 0%.
With `CN(C)c1ccc(CCn2cnc(N)c3nc(Sc4cc5c(cc4Br)OCO5)nc2-3)cc1` [Example 188, 8-(6-bromo-benzo[1,3]dioxol-5-ylsulfanyl)-3-[2-(4-dimethylamino-phenyl)-ethyl]-3H-purin-6-ylamine], the “% Inhibition” value is 21%.
Consider `CCOc1ccc(OCC)c(Sc2nc3c(N)ncn(CCc4ccccc4)c-3n2)c1` [Example 190, 8-(2,5-diethoxy-phenylsulfanyl)-3-phenethyl-3H-purin-6-ylamine], for which the “% Inhibition” value turned out to be 8%.
In the case of `CCOc1ccc(OCC)c(Sc2nc3c(N)ncn(CCc4ccccc4Cl)c-3n2)c1` [Example 192, 3-[2-(2-chloro-phenyl)-ethyl]-8-(2,5-diethoxy-phenylsulfanyl)-3H-purin-6-ylamine], the “% Inhibition” value came to 0%.

The same test, now with this note: BODIPY-GM 10 nM, Hsp90 30 nM.
As to `COc1ccc(OC)c(Sc2nc3c(N)ncnc3n2CCc2ccc(-c3ccccc3)cc2)c1` [Example 181, 9-(2-Biphenyl-4-yl-ethyl)-8-(2,5-dimethoxy-phenylsulfanyl)-9H-purin-6-ylamine], the half-inhibitory concentration (IC50) is above 25000 nM.
As for `COc1ccc(OC)c(Sc2nc3c(N)ncnc3n2CCc2ccccc2C(F)(F)F)c1` [Example 183, 8-(2,5-Dimethoxy-phenylsulfanyl)-9-[2-(2-trifluoromethyl-phenyl)-ethyl]-9H-purin-6-ylamine], the IC50 was 1100 nM.
Still for that read-out and setting: under `COc1ccc(OC)c(Sc2nc3c(N)ncnc3n2CCc2ccc(N(C)C)cc2)c1` [Example 185, 8-(2,5-Dimethoxy-phenylsulfanyl)-9-[2-(4-dimethylamino-phenyl)-ethyl]-9H-purin-6-ylamine] stands above 2500 nM; under `CN(C)c1ccc(CCn2c(Sc3cc4c(cc3Br)OCO4)nc3c(N)ncnc32)cc1` [Example 187, 8-(6-Bromo-benzo[1,3]dioxol-5-ylsulfanyl)-9-[2-(4-dimethylamino-phenyl)-ethyl]-9H-purin-6-ylamine], above 2500 nM.
The same measure, in the same setting: under `CCOc1ccc(OCC)c(Sc2nc3c(N)ncnc3n2CCc2ccccc2)c1` [Example 189, 8-(2,5-Diethoxy-phenylsulfanyl)-9-phenethyl-9H-purin-6-ylamine] stands above 8000 nM.
On the same count and under the same terms, the value for `CCOc1ccc(OCC)c(Sc2nc3c(N)ncnc3n2CCc2ccccc2Cl)c1` [Example 191, 9-[2-(2-Chloro-phenyl)-ethyl]-8-(2,5-diethoxy-phenylsulfanyl)-9H-purin-6-ylamine] was above 8000 nM.

In general, % Inhibition refers to the drop in the measured response relative to a control, in per cent. A lower % Inhibition goes with little suppression. In general, IC50 refers to the concentration that gives 50% inhibition.
